In patent publication US20250170126A1 (MITSUBISHI TANABE PHARMA CORPORATION, priority 2022, published 2025):
pIC50: −log10 of the molar value.

Biological target: Human B0AT1 (Homo sapiens (Human), UniProt Q695T7)
Experiment: hB0AT1 inhibitory test (phenylalanine uptake)
Format: cell-based
Conditions: Human B0AT1 stable expression CHO cells; [3H]-L-phenylalanine uptake, phenylalanine 0.25 mM
Description: A test compound dissolved in dimethyl sulfoxide (DMSO) was added to a 96 well plate for solid phase radioactivity measurement containing a scintillator at the bottom of the well (final concentration of DMSO 0.5%). DMSO alone as a control and DMSO containing N-(4-bromophenyl)-3,5-dichloro-2-hydroxybenzamide (final concentration […]) for the is measurement of B0AT1 non-specific uptake were similarly added at 0.5 μL per well. Human B0AT1 stable expression CHO cells suspended in a buffer (buffer containing 96 mM sodium chloride, 2 mM potassium chloride, 1.8 mM calcium chloride, 1 mM magnesium chloride, 0.01% bovine serum albumin, and 10 mM 2-[4-(2-hydroxyethyl)-1-piperazinyl]ethanesulfonic acid) were added by 90 μL to 75000 cells/well. After standing at ordinary temperature for 30 min or longer, the cells were subjected to a phenylalanine uptake experiment. A buffer containing L-phenylalanine and [3,4,5-3H]-L-phenylalanine was added by 10 μL per well (final concentration of phenylalanine 0.25 mM), and the radioactivity of the plate bottom surface at ordinary temperature was measured with a scintillation counter over time, and the radioactivity value after 100 to 200 min was analyzed. A value obtained by subtracting the B0AT1 non-specific uptake from the control uptake was taken as 100%, and the concentration necessary for each test compound to achieve 50% inhibition (IC50 value) was determined by nonlinear regression using a logistic model.

Chain of Human B0AT1 (Q695T7 whole entry): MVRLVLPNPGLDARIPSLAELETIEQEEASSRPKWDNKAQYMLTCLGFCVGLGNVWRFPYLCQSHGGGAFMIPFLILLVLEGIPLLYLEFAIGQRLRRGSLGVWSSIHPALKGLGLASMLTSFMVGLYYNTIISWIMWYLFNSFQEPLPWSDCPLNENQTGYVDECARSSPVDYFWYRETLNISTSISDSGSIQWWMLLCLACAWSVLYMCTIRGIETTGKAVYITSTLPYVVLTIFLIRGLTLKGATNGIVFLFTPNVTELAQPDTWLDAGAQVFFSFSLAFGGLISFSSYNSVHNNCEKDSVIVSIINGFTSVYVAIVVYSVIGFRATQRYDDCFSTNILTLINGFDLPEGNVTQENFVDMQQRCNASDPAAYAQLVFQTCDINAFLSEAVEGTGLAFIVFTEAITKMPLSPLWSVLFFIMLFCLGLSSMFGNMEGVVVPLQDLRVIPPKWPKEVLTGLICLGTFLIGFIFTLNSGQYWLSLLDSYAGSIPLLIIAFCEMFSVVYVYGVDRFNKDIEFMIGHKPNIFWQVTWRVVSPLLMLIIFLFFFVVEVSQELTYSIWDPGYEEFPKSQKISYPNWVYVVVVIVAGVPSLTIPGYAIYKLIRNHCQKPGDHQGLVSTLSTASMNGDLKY

pIC50 | Compound
7.27 | O=C(/C=C/c1ccc(C(F)(F)F)cc1)NCC(=O)N1CCc2cncnc2C1 [I-84]
6.73 | O=C(/C=C/c1ccc(C(F)(F)F)cc1)NCC(=O)N(CCO)Cc1ccccn1 [I-85]
7.64 | O=C(/C=C/c1ccc(C(F)(F)F)cc1)NCC(=O)N1CCCn2nccc21 [I-86]
6.91 | O=C(/C=C/c1ccc(C(F)(F)F)cc1)NCC(=O)N1CCCc2ccccc21 [I-87]
7.03 | O=C(/C=C/c1ccc(OC(F)F)cc1)NCC(=O)N1CCn2nccc2C1 [I-89]
7.64 | COc1nccc2c1CCN(C(=O)CNC(=O)/C=C/c1ccc(C(F)(F)F)cc1)C2 [I-90]
7.44 | COc1nccc2c1CN(C(=O)CNC(=O)/C=C/c1ccc(C(F)(F)F)cc1)CC2 [I-91]
7.70 | COc1cc2c(cn1)CN(C(=O)CNC(=O)/C=C/c1ccc(C(F)(F)F)cc1)CC2 [I-92]
7.51 | O=C(/C=C/c1ccc(C(F)(F)F)cc1)NCC(=O)N1CCn2nccc2C1 [I-93]
7.40 | COc1ccc2c(n1)CN(C(=O)CNC(=O)/C=C/c1ccc(C(F)(F)F)cc1)CC2 [I-94]
8.00 | O=C(/C=C/c1ccc(C(F)(F)F)cc1)NCC(=O)N1CCn2ncc(Br)c2C1 [I-96]
6.40 | CC1Cn2ncnc2CN1C(=O)CNC(=O)/C=C/c1ccc(C(F)(F)F)cc1 (stereo not drawn) [I-97]
7.11 | O=C(/C=C/c1ccc(C(F)(F)F)cc1)NCC(=O)N1CCc2[nH]nnc2C1 [I-98]
7.19 | O=C(/C=C/c1ccc(C(F)(F)F)cc1)NCC(=O)N1CCc2nnccc2C1 [I-99]
7.10 | Cn1nnc2c1CCN(C(=O)CNC(=O)/C=C/c1ccc(C(F)(F)F)cc1)C2 [I-100]
7.51 | CN1CCN(C(=O)CNC(=O)/C=C/c2ccc(-c3ccccc3)cc2)CC1 [I-103, (E)-N-[2-(4-methylpiperazin-1-yl)-2-oxoethyl]-3-(4-phenylphenyl) prop-2-enamide]

pIC50 | Compound
5.69 | CN(C)C(=O)CNC(=O)/C=C/c1ccc(C(F)(F)F)cc1 [I-104]
6.56 | CC(C)c1ccc(/C=C/C(=O)NCC(=O)N2CCN(C)CC2)cc1 [I-106]
5.94 | Cc1nc(-c2ccc(/C=C/C(=O)NCC(=O)N3CCN(C)CC3)cc2)no1 [I-107]
6.98 | CCCOc1ccc(/C=C/C(=O)NCC(=O)N2CCN(C)CC2)cc1 [I-108]
6.57 | CN1CCN(C(=O)CNC(=O)/C=C/c2ccc(OCC(F)(F)C(F)F)cc2)CC1 [I-109]
7.01 | CN1CCN(C(=O)CNC(=O)/C=C/c2ccc(C3CC3)cc2)CC1 [I-110]
6.33 | CN1CCN(C(=O)CNC(=O)/C=C/c2ccc(-c3cccnc3)cc2)CC1 [I-111]
7.25 | CN1CCN(C(=O)CNC(=O)/C=C/c2ccc(OC(F)(F)F)cc2)CC1 [I-112]
6.75 | CCCCOc1ccc(/C=C/C(=O)NCC(=O)N2CCN(C)CC2)cc1 [I-113]
6.03 | CN1CCN(C(=O)CNC(=O)/C=C/c2ccc(OCC3CC3)cc2)CC1 [I-114]
7.41 | CN1CCN(C(=O)CNC(=O)/C=C/c2ccc(C3CCC3)cc2)CC1 [I-116]
6.70 | CCOc1ccc(/C=C/C(=O)NCC(=O)N2CCN(C)CC2)cc1 [I-117]
6.86 | CN1CCN(C(=O)CNC(=O)/C=C/c2ccc(OC(F)(F)F)cc2)CC1=O [I-118]
7.52 | CC1CN(C)CCN1C(=O)CNC(=O)/C=C/c1ccc(C(F)(F)F)cc1 (stereo not drawn) [I-119, (E)-N-[2-(2,4-dimethylpiperazin-1-yl)-2-oxoethyl]-3-[4-(trifluoromethyl)phenyl]prop-2-enamide]
7.09 | Cc1nnc([C@H]2CN(C)CCN2C(=O)CNC(=O)/C=C/c2ccc(C(F)(F)F)cc2)o1 [I-121]
6.76 | CN1CCN(C(=O)CNC(=O)/C=C/c2ccc(C(F)(F)F)cc2)[C@H](C(=O)O)C1 [I-123, (2S)-4-methyl-1-[2-[[(E)-3-[4-(trifluoromethyl)phenyl]prop-2-enoyl]amino]acetyl]piperazine-2-carboxylic acid]

Compound | pIC50
CN1[C@@H]2CC[C@H]1CN(C(=O)CNC(=O)/C=C/c1ccc(C(F)(F)F)cc1)C2 [I-122] | 6.19
